Values quoted from earlier work in US20210008004A1, “CANNABINOID FORMULATIONS AND METHODS INCLUDING THE ANTIOXIDANT C60” (priority 2017, published 2021).

Experiments:
[1] = system: rodent
[2] = biological target: CB1 receptor (Homo sapiens, UniProt P21554)
[3] = biological target: peripheral CB2-receptors (Homo sapiens, UniProt P34972); conditions: in vivo
peripheral CB2-receptors, sequence (P34972 whole entry): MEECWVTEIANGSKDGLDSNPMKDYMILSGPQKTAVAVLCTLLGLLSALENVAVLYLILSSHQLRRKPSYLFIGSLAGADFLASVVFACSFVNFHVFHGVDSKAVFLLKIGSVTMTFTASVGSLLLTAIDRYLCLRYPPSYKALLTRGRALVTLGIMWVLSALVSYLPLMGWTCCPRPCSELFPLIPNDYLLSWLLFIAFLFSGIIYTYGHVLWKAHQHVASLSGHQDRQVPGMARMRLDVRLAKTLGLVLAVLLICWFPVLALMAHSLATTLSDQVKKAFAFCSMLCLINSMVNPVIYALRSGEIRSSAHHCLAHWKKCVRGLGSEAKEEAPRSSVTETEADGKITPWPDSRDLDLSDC

CB1 receptor, sequence (P21554 whole entry): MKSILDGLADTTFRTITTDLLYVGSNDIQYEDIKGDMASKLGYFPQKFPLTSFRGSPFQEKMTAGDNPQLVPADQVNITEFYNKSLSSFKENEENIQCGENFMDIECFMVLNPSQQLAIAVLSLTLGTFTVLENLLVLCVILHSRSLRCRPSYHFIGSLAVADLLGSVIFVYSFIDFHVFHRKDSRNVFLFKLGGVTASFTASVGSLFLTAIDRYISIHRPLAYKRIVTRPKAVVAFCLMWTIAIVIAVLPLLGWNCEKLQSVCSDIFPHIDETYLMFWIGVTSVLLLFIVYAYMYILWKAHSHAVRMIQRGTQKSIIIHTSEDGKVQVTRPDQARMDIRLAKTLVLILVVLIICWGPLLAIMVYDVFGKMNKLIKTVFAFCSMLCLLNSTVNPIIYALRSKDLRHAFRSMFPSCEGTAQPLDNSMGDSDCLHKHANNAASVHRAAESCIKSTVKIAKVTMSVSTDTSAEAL

SMILES: c12c3c4c5c1c1c6c7c2c2c8c3c3c9c4c4c%10c5c5c1c1c6c6c%11c7c2c2c7c8c3c3c8c9c4c4c9c%10c5c5c1c1c6c6c%11c2c2c7c3c3c8c4c4c9c5c1c1c6c2c3c41 [Example C60, buckminsterfullerene]
- solubility in lipids or aqueous solutions: not typically soluble
- toxicity ([1]; even high doses): does not exhibit toxicity
- rodent life span ([1]; some rodents): doubled

SMILES: COc1ccc(/C=C/c2cc(OC)cc(=O)o2)cc1 [Yangonin]
- affinity to the CB1 receptor [2]: significant affinity

SMILES: C=C1CC/C=C(\C)CC[C@@H]2[C@@H]1CC2(C)C [beta-caryophyllene]
- agonist activity at peripheral CB2-receptors [3]: selective agonist
